The supplement of paper PMC10627819

What was measured:
B. subtilis 168 [1] = assay: fitness (endpoint OD595 vs no drug) (fraction); higher = more growth
How it was run: (§1)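 Bacterial growth was followed in 384-well plates seeded at OD595 0.01, with 30 µl per well, or 55 µl for S. pneumoniae, in TSB, LB Lennox or CY at 37 °C. OD595 was read every 30 min for 14 h, and each reading had the first reading subtracted as background. Fitness is the background-corrected optical density at entry into stationary phase divided by the robust mean of the no-drug control wells. This ratio is capped at 1.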

S. aureus DSM 20231 [2] = assay: as above
How it was run: as §1

B. subtilis 168 [3] = assay: Bliss interaction score (quartile over a dose matrix) (fitness difference); higher = more antagonism (negative = synergy)
How it was run: (§2)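 Each plate was normalised to the robust mean of its own no-drug wells, using OD595 at entry into stationary phase, with values capped at 1. This normalised growth is the fitness value. The Bliss score is the difference between observed and product-expected fitness, with single-drug fitness inferred from the combination data and quartiles taken over technical, biological and donor/recipient replicates.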

S. pneumoniae D39V [4] = assay: as above
How it was run: as §2

S. aureus DSM 20231 [5] = assay: as above
How it was run: as §2

S. aureus Newman = assay: as above
How it was run: as §2

S. pneumoniae D39V [6] = assay: fitness (endpoint OD595 vs no drug) (fraction); higher = more growth
How it was run: as §1
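For Bliss interaction score (quartile over a dose matrix) in this document: first quartile when negative (synergy) and third quartile when positive (antagonism).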

CCC[C@@H]1C[C@@H](C(=O)N[C@@H]([C@H]2O[C@H](SC)[C@H](O)[C@@H](O)[C@H]2O)[C@@H](C)O)N(C)C1 [Lincomycin] + COc1cc(Cc2cnc(N)nc2N)cc(OC)c1OC [Trimethoprim]
fitness, B. subtilis 168 [1], one replicate
Settings | partner 0.1 µg/mL | partner 0.125 µg/mL | partner 0.2 µg/mL | partner 0.25 µg/mL | partner 0.4 µg/mL | partner 1 µg/mL | partner 2 µg/mL
first compound 0.1 µg/mL | – | 0.539 | – | 0.582 | – | 0.451 | 0.343
first compound 0.2 µg/mL | – | 0.633 | – | 0.619 | – | 0.319 | 0.174
first compound 0.4 µg/mL | 0.581 | – | 0.318 | – | 0.215 | 0.069 | 0.0635
first compound 0.8 µg/mL | 0.382 | 0.142 | 0.169 | – | 0.121 | – | –
first compound 1.6 µg/mL | 0.112 | 0.0455 | 0.0673 | – | 0.0597 | – | –

fitness
Settings | first compound 0.1 µg/mL | first compound 0.2 µg/mL | first compound 0.4 µg/mL | first compound 0.8 µg/mL | first compound 1.6 µg/mL
B. subtilis 168 [1], partner 0.125 µg/mL | – | – | 0.487 | – | –
B. subtilis 168 [1], partner 0.25 µg/mL | – | – | 0.465 | 0.263 | 0.0775
B. subtilis 168 [1], partner 0.5 µg/mL | 0.412 | 0.368 | 0.282 | 0.155 | 0.0565
S. aureus DSM 20231 [2], partner 0.125 µg/mL | 0.83 | 0.556 | 0.227 | – | –
S. aureus DSM 20231 [2], partner 0.25 µg/mL | 0.69 | 0.596 | – | – | –
S. aureus DSM 20231 [2], partner 0.5 µg/mL | 0.49 | 0.536 | 0.173 | – | –
S. aureus DSM 20231 [2], partner 1 µg/mL | 0.0776 | 0.0724 | 0.0567 | – | –

Settings | Bliss interaction score
B. subtilis 168 [3] | -0.231
S. aureus DSM 20231 [5] | 0.222
S. aureus Newman | 0.213
S. pneumoniae D39V [4] | -0.125

CCC[C@@H]1C[C@@H](C(=O)N[C@@H]([C@H]2O[C@H](SC)[C@H](O)[C@@H](O)[C@H]2O)[C@@H](C)O)N(C)C1 [Lincomycin] + Cn1nnc(-c2ccc(-c3ccc(N4C[C@H](CO)OC4=O)cc3F)cn2)n1 [Tedizolid]
fitness
Settings | partner 0.03125 µg/mL | partner 0.0625 µg/mL | partner 0.125 µg/mL | partner 0.25 µg/mL | partner 0.5 µg/mL
S. aureus DSM 20231 [2], first compound 0.1 µg/mL | – | 0.806 | 0.683 | 0.364 | –
S. aureus DSM 20231 [2], first compound 0.2 µg/mL | – | 0.568 | 0.434 | 0.229 | –
S. aureus DSM 20231 [2], first compound 0.4 µg/mL | – | 0.27 | 0.182 | 0.115 | –
S. pneumoniae D39V [6], first compound 0.2 µg/mL | 0.732 | 0.796 | 0.665 | – | –
S. pneumoniae D39V [6], first compound 0.215 µg/mL | – | – | 0.754 | 0.731 | 0.345
S. pneumoniae D39V [6], first compound 0.4 µg/mL | 0.647 | 0.716 | 0.611 | – | –
S. pneumoniae D39V [6], first compound 0.43 µg/mL | – | – | 0.661 | 0.629 | 0.277
S. pneumoniae D39V [6], first compound 0.8 µg/mL | 0.549 | 0.67 | 0.57 | – | –
S. pneumoniae D39V [6], first compound 0.86 µg/mL | – | – | 0.209 | 0.162 | 0.0655

Settings | Bliss interaction score
B. subtilis 168 [3] | 0.0845
S. aureus DSM 20231 [5] | -0.114
S. aureus Newman | -0.129
S. pneumoniae D39V [4] | 0.138
